Test results as given in patent publication US8143244B2, “Cyclopropyl fused indolobenzazepine HCV NS5B inhibitors” (Bristol-Myers Squibb Company, priority 2009, dated 2012).

What was measured:
HCV NS5B = molecular target: T1, HCV NS5B (Hepatitis C virus genotype 1b, UniProt Q9WMX2); experiment: HCV NS5B RdRp enzyme assay; type: biochemical; conditions: Table 1; HCV NS5B RdRp genotype 1b
T1 construct: The protein was expressed with an 18 amino acid C-terminal truncation to enhance the solubility; made in house; host or cells: E. coli BL21(DE3)
Method: HCV NS5B RdRp cloning, expression, and purification. The cDNA encoding the NS5B protein of HCV, genotype 1b, was cloned into the pET21a expression vector. The protein was expressed with an 18 amino acid C-terminal truncation to enhance the solubility. The E. coli competent cell line BL21(DE3) was used for expression of the protein. Cultures were grown at 37° C. for ˜4 hours until the cultures reached an optical density of 2.0 at 600 nm. The cultures were cooled to 20° C. and induced with 1 mM IPTG. Fresh ampicillin was added to a final concentration of 50 μg/ml and the cells were grown overnight at 20° C.
Cell pellets (3L) were lysed for purification to yield 15-24 mgs of purified NS5B. The lysis buffer consisted of 20 mM Tris-HCl, pH 7.4, 500 mM NaCl, 0.5% triton X-100, 1 mM DTT, 1 mM EDTA, 20% glycerol, 0.5 mg/ml lysozyme, 10 mM MgCl2, 15 ug/ml deoxyribonuclease I, and Complete TM protease inhibitor tablets (Roche). After addition of the lysis buffer, frozen cell pellets were resuspended using a tissue homogenizer. To reduce the viscosity of the sample, aliquots of the lysate were sonicated on ice using a microtip attached to a Branson sonicator. The sonicated lysate was centrifuged at 100,000×g for 1 hr at 4° C. and filtered through a 0.2 μm filter unit (Corning).
The protein was purified using three sequential chromatography steps: Heparin sepharose CL-6B, polyU sepharose 4B, and Hitrap SP sepharose (Pharmacia). The chromatography buffers were identical to the lysis buffer but contained no lysozyme, deoxyribonuclease I, MgCl2 or protease inhibitor and the NaCl concentration of the buffer was adjusted according to the requirements for charging the protein onto the column. Each column was eluted with a NaCl gradient which varied in length from 5-50 column volumes depending on the column type. After the final chromatography step, the resulting purity of the enzyme is >90% based on SDS-PAGE analysis. The enzyme was aliquoted and stored at −80° C.
Standard HCV NS5B RdRp enzyme assay. HCV RdRp genotype 1b assays were run in a final volume of 60 μl in 96 well plates (Costar 3912). The assay buffer is composed of 20 mM Hepes, pH 7.5, 2.5 mM KCl, 2.5 mM MgCl2, 1 mM DTT, 1.6 U RNAse inhibitor (Promega N2515), 0.1 mg/ml BSA (Promega R3961), and 2% glycerol. All compounds were serially diluted (3-fold) in DMSO and diluted further in water such that the final concentration of DMSO in the assay was 2%. HCV RdRp genotype 1b enzyme was used at a final concentration of 28 nM. A polyA template was used at 6 nM, and a biotinylated oligo-dT12 primer was used at 180 nM final concentration. Template was obtained commercially (Amersham 27-4110). Biotinylated primer was prepared by Sigma Genosys. 3H-UTP was used at 0.6 μCi (0.29 μM total UTP). Reactions were initiated by the addition of enzyme, incubated at 30° C. for 60 min, and stopped by adding 25 μl of 50 mM EDTA containing SPA beads (4 μg/μl, Amersham RPNQ 0007). Plates were read on a Packard Top Count NXT after >1 hr incubation at room temperature.
Modified HCV NS5B RdRp enzyme assay. A modified enzyme assay was performed essentially as described for the standard enzyme assay except for the following: The biotinylated oligo dT12 primer was precaptured on streptavidin-coated SPA beads by mixing primer and beads in assay buffer and incubating at room temperature for one hour. Unbound primer was removed after centrifugation. The primer-bound beads were resuspended in 20 mM Hepes buffer, pH 7.5 and used in the assay at final concentrations of 20 nM primer and 0.67 μg/μl beads. Order of addition in the assay: enzyme (14 nM) was added to diluted compound followed by the addition of a mixture of template (0.2 nM), 3H-UTP (0.6 μCi, 0.29 μM), and primer-bound beads, to initiate the reaction; concentrations given are final. Reactions were allowed to proceed for 4 hours at 30° C.
IC50 values for compounds were determined using seven different [I]. […]

HCV replicon = experiment: HCV Replicon Luciferase Reporter Assay (LE Assay); type: cell-based, HCV genotype 1b; conditions: Hepatitis C virus, genotype 1b, Huh-7, read-out: LE NeoLuc EC50, Table 1, HUH-7 cells, genotype 1b replicon
Method: (§1) The HCV replicon luciferase assay was developed to monitor the inhibitory effects of compounds described in the disclosure on HCV viral replication. Utilization of a replicon luciferase reporter assay was first described by Krieger et al (Krieger N, Lohmann V, and Bartenschlager R, J. Virol. 75(10):4614-4624 (2001)). HUH-7 cells, constitutively expressing the HCV replicon, were grown in Dulbeccors Modified Eagle Media (DMEM) (Gibco-BRL) containing 10% Fetal calf serum (FCS) (Sigma) and 1 mg/ml G418 (Gibco-BRL). Compounds were serially diluted 3 folds in DMSO for a twenty-point titration and subsequently transferred to sterile 384-well tissue-culture treated plates (Coming cat #3571). The plates were then seeded with 50 μl of cells at a density of 3.0×10^3 cells/well in DMEM containing 4% FCS (final DMSO concentration at 0.5%). After 3 days incubation at 37° C., cells were analyzed for Renilla Luciferase activity using the EnduRen as substrate (Promega cat #E6485). The EnduRen substrate was diluted in DMEM and then added to the plates to a final concentration of 7.5 μM. The plates were incubated for 2 hrs at 37° C. and then read immediately for 30 seconds with Viewlux Imager (PerkinElmer) using a luminescence program. To assess cytotoxicity of compounds, CC50 values were generated by multiplexing the EnduRen-containing plates with Cell Titer-Blue (Promega, cat #G8082). 3 μl of Cell-Titer Blue was added to each well and incubated for 8 hrs at 37° C. The fluorescence signal from each well was read, with an excitation wavelength at 525/10 nm and an emission wavelength of 598/10 nm, using the Viewlux Imager.

HCV replicon genotype 1a = experiment: HCV Replicon Luciferase Reporter Assay (LE Assay), genotype 1a replicon; type: cell-based, HCV genotype 1a; conditions: Hepatitis C virus, read-out: LE NeoLuc EC50
Method: as §1

T1 sequence (Q9WMX2 2420-2992): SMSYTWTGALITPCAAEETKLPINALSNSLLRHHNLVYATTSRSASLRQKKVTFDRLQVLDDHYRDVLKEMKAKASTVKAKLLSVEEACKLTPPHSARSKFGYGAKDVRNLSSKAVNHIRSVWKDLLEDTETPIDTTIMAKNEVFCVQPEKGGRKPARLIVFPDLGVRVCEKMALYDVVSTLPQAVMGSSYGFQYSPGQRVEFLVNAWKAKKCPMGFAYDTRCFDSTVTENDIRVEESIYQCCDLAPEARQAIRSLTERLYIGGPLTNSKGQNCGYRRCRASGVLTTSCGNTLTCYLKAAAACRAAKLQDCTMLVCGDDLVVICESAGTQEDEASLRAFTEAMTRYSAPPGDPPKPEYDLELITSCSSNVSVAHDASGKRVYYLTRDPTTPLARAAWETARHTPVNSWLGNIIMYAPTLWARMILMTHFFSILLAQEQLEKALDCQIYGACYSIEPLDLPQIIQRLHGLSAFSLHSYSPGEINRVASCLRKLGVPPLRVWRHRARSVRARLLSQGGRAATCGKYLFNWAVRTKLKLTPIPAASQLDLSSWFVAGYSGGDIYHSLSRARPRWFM

| SMILES | IC50 (HCV NS5B) [nM] | EC50 (HCV replicon) [nM] | EC50 (HCV replicon genotype 1a) [nM] |
| --- | --- | --- | --- |
| COc1ccc2c(c1)[C@@H]1C[C@]1(C(=O)N1CC34CCCC3(CN(C)C4)C1)Cn1c-2c(C2CCCCC2)c2ccc(C(=O)NS(=O)(=O)C(C)C)cc21 (some centres unmarked) | 1.9 to 500 | 1.9 to 500 |  |
| COc1ccc2c(c1)C=C(C(=O)N1CC34COCC3(C1)N(C(C)=O)C4)Cn1c-2c(C2CCCCC2)c2ccc(C(=O)NS(=O)(=O)C(C)C)cc21 (centres unmarked) | 1.9 to 500 | 1.9 to 500 |  |
| COc1ccc2c(c1)[C@@H]1C[C@]1(C(=O)N1CC34CCC3(C1)N(C(C)=O)C4)Cn1c-2c(C2CCCCC2)c2ccc(C(=O)NS(=O)(=O)C(C)C)cc21 (some centres unmarked) | 1.9 to 500 | 1.9 to 500 |  |
| COc1ccc2c(c1)[C@@H]1C[C@]1(C(=O)N1CC34COCC3(C1)CN(S(=O)(=O)C(C)C)C4)Cn1c-2c(C2CCCCC2)c2ccc(C(=O)NS(=O)(=O)C(C)C)cc21 (some centres unmarked) | 1.9 to 500 |  | 1.9 to 500 |
| COc1ccc2c(c1)[C@@H]1C[C@]1(C(=O)N1CC34CCC3(CN(C(=O)N(C(C)C)C(C)C)C4)C1)Cn1c-2c(C2CCCCC2)c2ccc(C(=O)NS(=O)(=O)C(C)C)cc21 (some centres unmarked) | 1.9 to 500 |  | 1.9 to 500 |
| COc1ccc2c(c1)[C@@H]1C[C@]1(C(=O)N1CC34COCC3(CN(CC(F)(F)F)C4)C1)Cn1c-2c(C2CCCCC2)c2ccc(C(=O)NS(=O)(=O)C(C)C)cc21 (some centres unmarked) | 1.9 to 500 |  | 1.9 to 500 |
| COc1ccc2c(c1)[C@@H]1C[C@]1(C(=O)N1CC34COCC3(CN(CC(F)(F)F)C4)C1)Cn1c-2c(C2CCCCC2)c2ccc(C(=O)NS(=O)(=O)N(C)C)cc21 (some centres unmarked) | 1.9 to 500 |  | 1.9 to 500 |
| COc1ccc2c(c1)[C@@H]1C[C@]1(C(=O)N1CC34COCC3(C1)CN(S(=O)(=O)C(C)C)C4)Cn1c-2c(C2CCCCC2)c2ccc(C(=O)NS(=O)(=O)N(C)C)cc21 (some centres unmarked) | < 1.7 |  | 1.9 to 500 |
| COc1ccc2c(c1)[C@@H]1C[C@]1(C(=O)N1CC34CCC3(CN(C(=O)N(C)C)C4)C1)Cn1c-2c(C2CCCCC2)c2ccc(C(=O)NS(=O)(=O)C(C)C)cc21 (some centres unmarked) | 1.9 to 500 |  | 1.9 to 500 |
| COc1ccc2c(c1)[C@@H]1C[C@]1(C(=O)N1CC34CCC3(CN(C(=O)N3CCCC3)C4)C1)Cn1c-2c(C2CCCCC2)c2ccc(C(=O)NS(=O)(=O)C(C)C)cc21 (some centres unmarked) | 1.9 to 500 |  | 1.9 to 500 |
| COc1ccc2c(c1)[C@@H]1C[C@]1(C(=O)N1CC34CCC3(CN(C(=O)N3CCOCC3)C4)C1)Cn1c-2c(C2CCCCC2)c2ccc(C(=O)NS(=O)(=O)C(C)C)cc21 (some centres unmarked) | 1.9 to 500 |  | 1.9 to 500 |
| COc1ccc2c(c1)[C@@H]1C[C@]1(C(=O)N1CC34CCC3(CN(C(=O)N(C(C)C)C(C)C)C4)C1)Cn1c-2c(C2CCCCC2)c2ccc(C(=O)NS(=O)(=O)N(C)C)cc21 (some centres unmarked) | 1.9 to 500 |  | 1.9 to 500 |
| COc1ccc2c(c1)[C@@H]1C[C@]1(C(=O)N1CC34CCC3(CN(C(=O)N3CCCC3)C4)C1)Cn1c-2c(C2CCCCC2)c2ccc(C(=O)NS(=O)(=O)N(C)C)cc21 (some centres unmarked) | 1.9 to 500 |  | 1.9 to 500 |
